{
  "source": "paper PMC6499206",
  "about": "“Quantification of Volatile Metabolites Derived From Garlic (Allium sativum) in Human Urine” (Frontiers in Nutrition, 2019)",
  "assay": "Quantification of garlic-derived metabolites in human urine after ingestion of 3 g raw garlic (SIDA, SAFE, HRGC-MS / HRGC-GC-MS)",
  "assay_type": "in vivo",
  "details": "3 g raw garlic",
  "excerpt": "Human urine samples were obtained from 18 volunteers (age 22–38 years, mean 27 years; 11 females, 7 males); thereby, one volunteer conducted the whole experimental series twice. At the time of examination, volunteers reported no known illness that might have potentially influenced the metabolism or the excretion of urine. The test persons were instructed to avoid foods that were rich in sulfur-containing substances at the testing day as well as 2 days preceding the testing day, namely garlic, onion, wild garlic, chives, cabbage, and leek, and were only allowed to consume the garlic sample provided in the course of the experiments. Additionally, subjects were asked to keep records of the food (including food supplements) and beverages they consumed during these 3 testing days. Generally, the overall panelists' requirements were in accordance with our previous studies ([5], [16]).\nOn the sampling day, the outer garlic cloves of a whole garlic bulb were peeled and cut into ~3 mm cubes by using a garlic cutter (Genius GmbH, Limburg/Lahn, Germany). Subsequently these cubes were thoroughly mixed and aliquoted into 3 g portions. Three to four test persons conducted the experiment at the same day. Each test person was asked to ingest a garlic portion of 3 g. In total, eight consecutive urine samples were provided by each test person, comprising one whole urine set. The samples were collected in sterile brown glass bottles, with sampling times as follows: one sample was provided directly prior to garlic consumption. The series of the second to eighth sample was then obtained at about 0.5, 1, 2, 4, 6, 8, and 24 h after garlic consumption, respectively. Between the first urine sample (prior to garlic consumption) and the seventh urine sample (8 h after garlic consumption) test persons only spent urine at the specific time points mentioned before. Another sample was provided at the next morning (24 h after garlic consumption). Between the samples provided 8 and 24 h after garlic consumption no urine was collected. All samples were immediately placed into a −80°C freezer and were kept frozen until further analysis.\nThe samples of each set were termed according to their sampling time. The following list provides the time intervals that are related to the respective sample name: • - pre: before garlic consumption • - 0.5 h post: 0.4–0.8 h after garlic consumption • - 1 h post: 0.9–1.3 h after garlic consumption • - 2 h post: 1.8 h−2.2 h after garlic consumption • - 4 h post: 3.8–4.4 h after garlic consumption • - 6 h post: 5.8–6.4 h after garlic consumption • - 8 h post: 7.8–8.4 h after garlic consumption • - 24 h post: 23.8–25.6 h after garlic consumption\nA creatinine kit (Labor+Technik Eberhard Lehmann GmbH, Berlin, Germany) was used to determine the creatinine content in each urine sample. The determination principle of this kit is based on the reaction of creatinine with picric acid under basic conditions (Jaffé reaction). The formed complex was detected photometrically at a wavelength of 492 nm.\nFor quantification purposes, the deuterated standards ^2H3-AMS, ^2H3-AMSO, and ^2H3-AMSO2 were added to the sample and stirred for 10 min. Subsequently, DCM was added in a ratio of 1:2 (DCM/human urine; v/v) and this solution was stirred for further 30 min at room temperature. To isolate the volatile fraction from the urine samples we then applied SAFE-distillation ([17]), thereby distilling the respective samples at 50°C. After completion of the distillation process, 10 mL of DCM were applied in each case to rinse the SAFE apparatus and to ensure complete transition of the volatile compounds. This process was repeated with another 10 mL of DCM. After thawing, the obtained aqueous distillate phase was extracted three times with 25 mL DCM. The organic phases were combined, dried over anhydrous Na2SO4 and concentrated to a total volume of 100 μL by means of Vigreux distillation and subsequent micro-distillation at 50°C. […]",
  "data": [
    {"smiles": "C=CCS(C)(=O)=O", "note": "[AMSO2, allyl methyl sulfone]", "values": [
      {"measurement": "metabolite concentration in urine", "setting": "U VII, 1 h post (1.08 h)", "result": 125.9, "unit": "µg/kg"},
      {"measurement": "metabolite concentration in urine, creatinine-normalized", "setting": "U VII, 1 h post (1.08 h)", "result": 78.0, "unit": "µg/mmol creatinine"},
      {"measurement": "metabolite concentration in urine", "setting": "U VII, 2 h post (2.00 h)", "result": 139.9, "unit": "µg/kg"},
      {"measurement": "metabolite concentration in urine, creatinine-normalized", "setting": "U VII, 2 h post (2.00 h)", "result": 143.4, "unit": "µg/mmol creatinine"},
      {"measurement": "metabolite concentration in urine", "setting": "U VII, 4 h post (4.00 h)", "result": 170.5, "unit": "µg/kg"},
      {"measurement": "metabolite concentration in urine, creatinine-normalized", "setting": "U VII, 4 h post (4.00 h)", "result": 105.6, "unit": "µg/mmol creatinine"},
      {"measurement": "metabolite concentration in urine", "setting": "U VII, 6 h post (6.00 h)", "result": 203.6, "unit": "µg/kg"},
      {"measurement": "metabolite concentration in urine, creatinine-normalized", "setting": "U VII, 6 h post (6.00 h)", "result": 65.5, "unit": "µg/mmol creatinine"},
      {"measurement": "metabolite concentration in urine", "setting": "U VII, 8 h post (8.00 h)", "result": 147.2, "unit": "µg/kg"},
      {"measurement": "metabolite concentration in urine, creatinine-normalized", "setting": "U VII, 8 h post (8.00 h)", "result": 75.5, "unit": "µg/mmol creatinine"},
      {"measurement": "metabolite concentration in urine", "setting": "U VII, 24 h post (24.00 h)", "result": 15.7, "unit": "µg/kg"},
      {"measurement": "metabolite concentration in urine, creatinine-normalized", "setting": "U VII, 24 h post (24.00 h)", "result": 4.2, "unit": "µg/mmol creatinine"},
      {"measurement": "metabolite concentration in urine", "setting": "U VII, pre (-0.25 h)", "result": 7.0, "unit": "µg/kg"},
      {"measurement": "metabolite concentration in urine, creatinine-normalized", "setting": "U VII, pre (-0.25 h)", "result": 2.0, "unit": "µg/mmol creatinine"},
      {"measurement": "metabolite concentration in urine", "setting": "U VIII, 0.5 h post (0.52 h)", "result": 112.9, "unit": "µg/kg"},
      {"measurement": "metabolite concentration in urine, creatinine-normalized", "setting": "U VIII, 0.5 h post (0.52 h)", "result": 143.6, "unit": "µg/mmol creatinine"},
      {"measurement": "metabolite concentration in urine", "setting": "U VIII, 1 h post (1.08 h)", "result": 256.0, "unit": "µg/kg"},
      {"measurement": "metabolite concentration in urine, creatinine-normalized", "setting": "U VIII, 1 h post (1.08 h)", "result": 154.0, "unit": "µg/mmol creatinine"},
      {"measurement": "metabolite concentration in urine", "setting": "U VIII, 2 h post (2.08 h)", "result": 301.1, "unit": "µg/kg"},
      {"measurement": "metabolite concentration in urine, creatinine-normalized", "setting": "U VIII, 2 h post (2.08 h)", "result": 284.7, "unit": "µg/mmol creatinine"},
      {"measurement": "metabolite concentration in urine", "setting": "U VIII, 4 h post (4.07 h)", "result": 322.0, "unit": "µg/kg"},
      {"measurement": "metabolite concentration in urine, creatinine-normalized", "setting": "U VIII, 4 h post (4.07 h)", "result": 152.2, "unit": "µg/mmol creatinine"},
      {"measurement": "metabolite concentration in urine", "setting": "U VIII, 6 h post (6.08 h)", "result": 348.3, "unit": "µg/kg"},
      {"measurement": "metabolite concentration in urine, creatinine-normalized", "setting": "U VIII, 6 h post (6.08 h)", "result": 92.2, "unit": "µg/mmol creatinine"},
      {"measurement": "metabolite concentration in urine", "setting": "U VIII, 8 h post (7.90 h)", "result": 255.0, "unit": "µg/kg"},
      {"measurement": "metabolite concentration in urine, creatinine-normalized", "setting": "U VIII, 8 h post (7.90 h)", "result": 92.7, "unit": "µg/mmol creatinine"},
      {"measurement": "metabolite concentration in urine", "setting": "U VIII, 24 h post (23.83 h)", "result": 48.3, "unit": "µg/kg"},
      {"measurement": "metabolite concentration in urine, creatinine-normalized", "setting": "U VIII, 24 h post (23.83 h)", "result": 18.1, "unit": "µg/mmol creatinine"},
      {"measurement": "metabolite concentration in urine", "setting": "U VIII, pre (-0.33 h)", "result": 97.6, "unit": "µg/kg"},
      {"measurement": "metabolite concentration in urine, creatinine-normalized", "setting": "U VIII, pre (-0.33 h)", "result": 21.82, "unit": "µg/mmol creatinine"},
      {"measurement": "metabolite concentration in urine", "setting": "U X, 0.5 h post (0.53 h)", "result": 15.5, "unit": "µg/kg"},
      {"measurement": "metabolite concentration in urine, creatinine-normalized", "setting": "U X, 0.5 h post (0.53 h)", "result": 8.0, "unit": "µg/mmol creatinine"},
      {"measurement": "metabolite concentration in urine", "setting": "U X, 1 h post (1.03 h)", "result": 27.7, "unit": "µg/kg"},
      {"measurement": "metabolite concentration in urine, creatinine-normalized", "setting": "U X, 1 h post (1.03 h)", "result": 35.2, "unit": "µg/mmol creatinine"},
      {"measurement": "metabolite concentration in urine", "setting": "U X, 2 h post (2.03 h)", "result": 48.6, "unit": "µg/kg"},
      {"measurement": "metabolite concentration in urine, creatinine-normalized", "setting": "U X, 2 h post (2.03 h)", "result": 72.3, "unit": "µg/mmol creatinine"},
      {"measurement": "metabolite concentration in urine", "setting": "U X, 4 h post (3.85 h)", "result": 79.1, "unit": "µg/kg"},
      {"measurement": "metabolite concentration in urine, creatinine-normalized", "setting": "U X, 4 h post (3.85 h)", "result": 60.1, "unit": "µg/mmol creatinine"},
      {"measurement": "metabolite concentration in urine", "setting": "U X, 6 h post (5.80 h)", "result": 89.3, "unit": "µg/kg"},
      {"measurement": "metabolite concentration in urine, creatinine-normalized", "setting": "U X, 6 h post (5.80 h)", "result": 37.7, "unit": "µg/mmol creatinine"},
      {"measurement": "metabolite concentration in urine", "setting": "U X, 8 h post (7.75 h)", "result": 85.2, "unit": "µg/kg"},
      {"measurement": "metabolite concentration in urine, creatinine-normalized", "setting": "U X, 8 h post (7.75 h)", "result": 36.5, "unit": "µg/mmol creatinine"},
      {"measurement": "metabolite concentration in urine", "setting": "U X, 24 h post (23.97 h)", "result": 53.0, "unit": "µg/kg"},
      {"measurement": "metabolite concentration in urine, creatinine-normalized", "setting": "U X, 24 h post (23.97 h)", "result": 4.9, "unit": "µg/mmol creatinine"},
      {"measurement": "metabolite concentration in urine", "setting": "U X, pre (-0.07 h)", "result": "< LOD^3"},
      {"measurement": "metabolite concentration in urine, creatinine-normalized", "setting": "U X, pre (-0.07 h)", "result": "< LOD^3"},
      {"measurement": "metabolite concentration in urine", "setting": "U XI, 0.5 h post (0.50 h)", "result": 27.5, "unit": "µg/kg"},
      {"measurement": "metabolite concentration in urine, creatinine-normalized", "setting": "U XI, 0.5 h post (0.50 h)", "result": 33.4, "unit": "µg/mmol creatinine"},
      {"measurement": "metabolite concentration in urine", "setting": "U XI, 1 h post (1.02 h)", "result": 65.7, "unit": "µg/kg"},
      {"measurement": "metabolite concentration in urine, creatinine-normalized", "setting": "U XI, 1 h post (1.02 h)", "result": 82.6, "unit": "µg/mmol creatinine"},
      {"measurement": "metabolite concentration in urine", "setting": "U XI, 2 h post (2.00 h)", "result": 93.5, "unit": "µg/kg"},
      {"measurement": "metabolite concentration in urine, creatinine-normalized", "setting": "U XI, 2 h post (2.00 h)", "result": 122.1, "unit": "µg/mmol creatinine"},
      {"measurement": "metabolite concentration in urine", "setting": "U XI, pre (-0.08 h)", "result": 9.0, "unit": "µg/kg"},
      {"measurement": "metabolite concentration in urine, creatinine-normalized", "setting": "U XI, pre (-0.08 h)", "result": 2.6, "unit": "µg/mmol creatinine"},
      {"measurement": "metabolite concentration in urine", "setting": "U XII, 0.5 h post (0.48 h)", "result": 17.3, "unit": "µg/kg"},
      {"measurement": "metabolite concentration in urine, creatinine-normalized", "setting": "U XII, 0.5 h post (0.48 h)", "result": 2.3, "unit": "µg/mmol creatinine"},
      {"measurement": "metabolite concentration in urine", "setting": "U XII, 1 h post (1.03 h)", "result": 33.1, "unit": "µg/kg"},
      {"measurement": "metabolite concentration in urine, creatinine-normalized", "setting": "U XII, 1 h post (1.03 h)", "result": 33.6, "unit": "µg/mmol creatinine"}
    ]}
  ]
}
